# Experimental data published in patent US20070213303A1, “Methods for reducing platelet activation and for the treatment of thrombotic events” (priority 2005, published 2007).
# Experiments:
# Format in all cases: cell-based, human
# [1] = test system: GP37 (CD165); test: Flow cytometry, platelet surface expression of CD165
# Method: (§1) Venous blood (8 ml) is collected in a plastic tube containing 2 ml of acid-citrate-dextrose (ACD) (7.3 g citric acid, 22.0 g sodium citrate.2H2O and 24.5 glucose in 1000 ml distilled water) and mixed well. The blood-ACD mixture is centrifuged at 1000 r.p.m. for 10 minutes at room temperature. The upper ⅔ of the platelet-rich plasma (PRP) is then collected and adjusted to pH=6.5 by adding ACD. The PRP is then centrifuged at 3000 r.p.m. for 10 minutes. The supernatant is removed and the platelet pellet is gently resuspended in 4 cc of the washing buffer (10 mM Tris/HCl, 0.15 M NaCl, 20 mM EDTA, pH=7.4). Platelets are washed in the washing buffer, and in TBS (10 mM Tris, 0.15 M NaCl, pH=7.4). All cells are then divided into the appropriate number of tubes. By way of example, if 9 different surface markers are evaluated, as described herein, then the cells should be divided into ten tubes, such that nine tubes containing washed platelets are incubated with 5 μl fluorescein isothiocyanate (FITC)-conjugated antibodies in the dark at +4° C. for 30 minutes, and one tube remains unstained and serves as a negative control. Surface antigen expression is measured with monoclonal murine anti-human antibodies, such as CD9 (p24); CD41a (IIb/IIIa, aIIbb3); CD42b (Ib); CD61(IIIa) (DAKO Corporation, Carpinteria, Calif.); CD49b (VLA-2, or a2b1); CD62p (P-selectin); CD31 (PECAM-1); CD 41b (IIb); and CD51/CD61 (vitronectin receptor, avb3) (PharMingen, San Diego Calif.), as the expression of these antigens on the cells is associated with platelet activation. After incubation, the cells are washed with TBS and resuspended in 0.25 ml of 1% paraformaldehyde. Samples are stored in the refrigerator at +4° C., and analyzed on a Becton Dickinson FACScan flow cytometer with laser output of 15 mw, excitation at 488 nm, and emission detection at 530±30 nm. The data can be collected and stored in list mode, and then analyzed using CELLQuest® software. FACS procedures are described in detail in, e.g., Gurbel, P. A. et al., J Amer Coll Cardiol 31: 1466-1473 (1998); Serebruany, V. L. et al., Am Heart J 136: 398-405 (1998); Gurbel, P. A. et al., Coron Artery Dis 9: 451-456 (1998) and Serebruany, V. L. et al., Arterioscl Thromb Vasc Biol 19: 153-158 (1999).
# (§2) Four cc of blood is collected in a tube, containing 2 cc of acid-citrate-dextrose (ACD; 7.3 g citric acid, 22.0 g sodium citrate.2H2O and 24.5 glucose in 1000 ml distilled water) and mixed well. The buffer, TBS (10 mM Tris, 0.15 M NaCl, pH 7.4) and the following fluorescein isothiocyanate (FITC) conjugated monoclonal antibodies (PharMingen, San Diego, Calif., USA, and DAKO, Calif., USA) are removed from a refrigerator and allowed to warm at room temperature (RT) prior to their use. The non-limiting examples of antibodies that can be used include CD41 (IIb/IIIa), CD31 (PECAM-1), CD62p (P-selectin), and CD51/61 (Vitronectin receptor). For each subject, six amber tubes (1.25 ml) are one Eppendorf tube (1.5 ml) are obtained and marked appropriately 450 μl of TBS buffer is pipetted to the labeled Eppendorf tube. A patient's whole blood tube is inverted gently twice to mix, and 50 μl of whole blood is pipetted to the appropriately labeled Eppendorf tube. The Eppendorf tube is capped and the diluted whole blood is mixed by inverting the Eppendorf tube gently two times, followed by pipetting 50 μl of diluted whole blood to each amber tube. […] The samples are analyzed on a Becton Dickinson FACScan flow cytometer. […]
# [2] = test system: CD40-ligand (CD154); test: Flow cytometry, platelet surface expression of CD154
# Method: as §1, §2
# [3] = test system: GP Ib (CD42b); test: Flow cytometry, platelet surface expression of CD42b
# Method: as §1, §2
# [4] = test system: vitronectin receptor (CD51/CD61); test: Flow cytometry, platelet surface expression of CD51/61
# Method: as §1, §2
# [5] = test system: PAR-1 (WEDE15); test: Flow cytometry, PAR-1 thrombin receptor expression (WEDE15)
# Method: as §1, §2
# [6] = test system: platelets; test: Conventional platelet aggregation induced by ADP
# Method: (§3) Trisodium citrate (3.8%) and whole blood is immediately mixed in a 1:9 ratio, and then centrifuged at 1200 g for 2.5 minutes, to obtain platelet-rich plasma (PRP), which is kept at room temperature for use within 1 hour for platelet aggregation studies. Platelet count is determined in each PRP sample with a Coulter Counter ZM (Coulter Co., Hialeah, Fla.). Platelet numbers are adjusted to 3.50×10^8/ml for aggregation with homologous platelet-poor plasma. PRP and whole blood aggregation tests are performed simultaneously. Whole blood is diluted 1:1 with the 0.5 ml PBS, and then swirled gently to mix. The cuvette with the stirring bar is placed in the incubation well and allowed to warm to 37° C. for 5 minutes. Then the samples are transferred to the assay well. An electrode is placed in the sample cuvette. Platelet aggregation is stimulated with 5 μM ADP, 1 μg/ml collagen, and 0.75 mM arachidonic acid. All agonists are obtained, e.g., from Chronolog Corporation (Hawertown, Pa.). Platelet aggregation studies are performed using a Chrono-Log Whole Blood Lumi-Aggregometer (model 560-Ca). Platelet aggregability is expressed as the percentage of light transmittance change from baseline using platelet-poor plasma as a reference at the end of recording time for plasma samples, or as a change in electrical impedance for whole blood samples. Aggregation curves are recorded for 4 minutes and analyzed according to internationally established standards using Aggrolink® software.
# (§4) The effect of doses (15 μg/ml to 90 μg/ml) of Compound A on in vitro platelet characteristics in subjects with multiple factors for vascular disease was tested.
# (§5) The in vitro effects of pre-incubation with escalating concentrations of Compound A on platelet aggregation, and expression of major surface receptors by flow cytometry, were assessed in 20 aspirin naïve volunteers with multiple risk factors for vascular disease.
# [7] = test system: CD41a; test: Flow cytometry, platelet surface expression of CD41a
# Method: as §1, §2
# [8] = test system: PAR-1 (SPAN-12); test: Flow cytometry, PAR-1 thrombin receptor expression (SPAN-12)
# Method: as §1, §2
# [9] = test system: platelets; test: Conventional platelet aggregation induced by collagen
# Method: as §3, with “Platelet aggregation is stimulated with 5 μM ADP, 1 μg/ml collagen, and 0.75 mM arachidonic acid.” left out
# as §4, §5
# [10] = test system: LAMP-1 (CD107a); test: Flow cytometry, platelet surface expression of CD107a
# Method: as §1, §2
# [11] = test system: PECAM-1 (CD31); test: Flow cytometry, platelet surface expression of CD31
# Method: as §1, §2
# [12] = test system: PAC-1; test: Flow cytometry, activity with PAC-1 antibody
# Method: as §1, §2
# [13] = test system: platelet-monocyte microparticles (CD14+CD151); test: Flow cytometry, formation of platelet-monocyte microparticles
# Method: as §1, §2
# [14] = test system: LAMP-3 (CD63); test: Flow cytometry, platelet surface expression of CD63
# Method: as §1, §2
# [15] = test system: P-selectin (CD62p); test: Flow cytometry, platelet surface expression of CD62p
# Method: as §1, §2
# [16] = test system: thrombospondin (CD36); test: Flow cytometry, platelet surface expression of thrombospondin
# Method: as §1, §2
compound,measurement,setting,value
CC(C)(Sc1cc(C(C)(C)C)c(O)c(C(C)(C)C)c1)Sc1cc(C(C)(C)C)c(OC(=O)CCC(=O)O)c(C(C)(C)C)c1 [Compound A],GP37 (CD165),[1],little or no effect
same,Flow cytometry CD165,[1]; preincubation 15 μg/mL,26.9 ± 2.7
same,Flow cytometry CD165,[1]; preincubation 30 μg/mL,24.7 ± 2.7
same,Flow cytometry CD165,[1]; preincubation 60 μg/mL,26.4 ± 3.7
same,Flow cytometry CD165,[1]; preincubation 90 μg/mL,25.5 ± 3.2
same,CD40-ligand (CD154),[2],little or no effect
same,Flow cytometry CD154,[2]; preincubation 15 μg/mL,6.6 ± 1.0
same,Flow cytometry CD154,[2]; preincubation 30 μg/mL,6.7 ± 0.9
same,Flow cytometry CD154,[2]; preincubation 60 μg/mL,6.8 ± 1.1
same,Flow cytometry CD154,[2]; preincubation 90 μg/mL,7.0 ± 1.1
same,Flow cytometry CD42b,[3]; preincubation 15 μg/mL,151.6 ± 11.2
same,Flow cytometry CD42b,[3]; preincubation 30 μg/mL,142.8 ± 11.4
same,Flow cytometry CD42b,[3]; preincubation 60 μg/mL,137.7 ± 8.9
same,Flow cytometry CD42b,[3]; preincubation 90 μg/mL,111.2 ± 11.2
same,Surface platelet expression of GP Ib (CD42b),[3]; pretreated samples,decreased
same,vitronectin receptor (CD51/CD61),[4],little or no effect
same,Flow cytometry CD51/61,[4]; preincubation 15 μg/mL,10.9 ± 2.1
same,Flow cytometry CD51/61,[4]; preincubation 30 μg/mL,11.4 ± 1.6
same,Flow cytometry CD51/61,[4]; preincubation 60 μg/mL,11.8 ± 2.1
same,Flow cytometry CD51/61,[4]; preincubation 90 μg/mL,10.2 ± 1.7
same,Flow cytometry PAR-1 (WEDE15),[5]; preincubation 15 μg/mL,40.6 ± 5.5
same,Flow cytometry PAR-1 (WEDE15),[5]; preincubation 30 μg/mL,36.1 ± 4.7
same,Flow cytometry PAR-1 (WEDE15),[5]; preincubation 60 μg/mL,37.7 ± 5.5
same,Flow cytometry PAR-1 (WEDE15),[5]; preincubation 90 μg/mL,34.3 ± 5.2
same,"PAR-1 thrombin receptor expression, active epitope",[5]; pretreated samples,reduced
same,"Conventional platelet aggregation, ADP 5 μM",[6]; preincubation 15 μg/mL,39.95 ± 11.9%
same,"Conventional platelet aggregation, ADP 5 μM",[6]; preincubation 30 μg/mL,40.4 ± 6.9%
same,"Conventional platelet aggregation, ADP 5 μM",[6]; preincubation 60 μg/mL,42.05 ± 7.2%
same,"Conventional platelet aggregation, ADP 5 μM",[6]; preincubation 90 μg/mL,42.65 ± 6.3%
same,platelet aggregation induced by ADP,[6]; pretreatment of blood samples with 15-30-60-90 μg/ml,uniformed significant inhibition
same,Flow cytometry CD41a,[7]; preincubation 15 μg/mL,185.3 ± 21.3
same,Flow cytometry CD41a,[7]; preincubation 30 μg/mL,170.3 ± 16.7
same,Flow cytometry CD41a,[7]; preincubation 60 μg/mL,165.5 ± 16.7
same,Flow cytometry CD41a,[7]; preincubation 90 μg/mL,160.9 ± 23.2
same,Surface platelet expression of GP IIb/IIIa (CD41a) antigen,[7]; pretreated samples,decreased
same,Flow cytometry PAR-1 (SPAN-12),[8]; preincubation 15 μg/mL,25.0 ± 4.2
same,Flow cytometry PAR-1 (SPAN-12),[8]; preincubation 30 μg/mL,23.9 ± 3.8
same,Flow cytometry PAR-1 (SPAN-12),[8]; preincubation 60 μg/mL,24.4 ± 2.8
same,Flow cytometry PAR-1 (SPAN-12),[8]; preincubation 90 μg/mL,19.4 ± 3.5
same,"PAR-1 thrombin receptor expression, intact epitope",[8]; pretreated samples,reduced
same,collagen-induced aggregation,[9],little or no effect
same,"Conventional platelet aggregation, Collagen 5 μg/ml",[9]; preincubation 15 μg/mL,64.95 ± 5.1%
same,"Conventional platelet aggregation, Collagen 5 μg/ml",[9]; preincubation 30 μg/mL,65.6 ± 8.7%
same,"Conventional platelet aggregation, Collagen 5 μg/ml",[9]; preincubation 60 μg/mL,66.6 ± 6.8%
same,"Conventional platelet aggregation, Collagen 5 μg/ml",[9]; preincubation 90 μg/mL,65.5 ± 6.0%
same,LAMP-1 (CD107a),[10],little or no effect
same,Flow cytometry CD107a,[10]; preincubation 15 μg/mL,6.7 ± 1.5
same,Flow cytometry CD107a,[10]; preincubation 30 μg/mL,6.4 ± 1.4
same,Flow cytometry CD107a,[10]; preincubation 60 μg/mL,6.1 ± 1.5
same,Flow cytometry CD107a,[10]; preincubation 90 μg/mL,6.4 ± 1.6
same,Flow cytometry CD31,[11]; preincubation 15 μg/mL,58.4 ± 5.7
same,Flow cytometry CD31,[11]; preincubation 30 μg/mL,57.8 ± 6.5
same,Flow cytometry CD31,[11]; preincubation 60 μg/mL,55.8 ± 7.1
same,Flow cytometry CD31,[11]; preincubation 90 μg/mL,50.9 ± 8.9
same,Surface platelet expression of PECAM-1 (CD31),[11]; pretreated samples,decreased
same,Flow cytometry PAC-1,[12]; preincubation 15 μg/mL,11.4 ± 1.1
same,Flow cytometry PAC-1,[12]; preincubation 30 μg/mL,11.2 ± 1.4
same,Flow cytometry PAC-1,[12]; preincubation 60 μg/mL,10.9 ± 2.2
same,Flow cytometry PAC-1,[12]; preincubation 90 μg/mL,10.3 ± 1.8
same,GP IIb/IIIa activity with PAC-1 antibody,[12]; pretreated samples,decreased
same,Flow cytometry CD151 + 14,[13]; preincubation 15 μg/mL,131.4 ± 11.8
same,Flow cytometry CD151 + 14,[13]; preincubation 30 μg/mL,107.6 ± 15.4
same,Flow cytometry CD151 + 14,[13]; preincubation 60 μg/mL,98.7 ± 12.9
same,Flow cytometry CD151 + 14,[13]; preincubation 90 μg/mL,97.9 ± 10.8
same,Formation of platelet-monocyte microparticles (CD14+CD151),[13]; pretreated samples,reduced
same,LAMP-3 (CD63),[14],little or no effect
same,Flow cytometry CD63,[14]; preincubation 15 μg/mL,7.0 ± 1.4
same,Flow cytometry CD63,[14]; preincubation 30 μg/mL,7.4 ± 1.4
same,Flow cytometry CD63,[14]; preincubation 60 μg/mL,6.8 ± 1.5
same,Flow cytometry CD63,[14]; preincubation 90 μg/mL,6.7 ± 1.4
same,P-selectin (CD62p),[15],little or no effect
same,Flow cytometry CD62p,[15]; preincubation 15 μg/mL,9.8 ± 1.8
same,Flow cytometry CD62p,[15]; preincubation 30 μg/mL,10.2 ± 1.9
same,Flow cytometry CD62p,[15]; preincubation 60 μg/mL,10.5 ± 1.8
same,Flow cytometry CD62p,[15]; preincubation 90 μg/mL,9.7 ± 1.8
same,thrombospondin (CD36),[16],little or no effect
same,Flow cytometry Thrombospondin,[16]; preincubation 15 μg/mL,10.1 ± 1.9
same,Flow cytometry Thrombospondin,[16]; preincubation 30 μg/mL,11.0 ± 2.3
same,Flow cytometry Thrombospondin,[16]; preincubation 60 μg/mL,10.3 ± 1.9
same,Flow cytometry Thrombospondin,[16]; preincubation 90 μg/mL,9.6 ± 2.0
